The results in this text go back to article PMC3486838 (PLoS ONE, 2012).

Read-outs that look alike come from different tables or passages of the source.

Data set [1] concerns the target T1, human CYP11B1 (Homo sapiens, UniProt P15538).
T1 construct: expressed in transfected cells; host or cells: V79MZh cells
T1 sequence (P15538 25-503): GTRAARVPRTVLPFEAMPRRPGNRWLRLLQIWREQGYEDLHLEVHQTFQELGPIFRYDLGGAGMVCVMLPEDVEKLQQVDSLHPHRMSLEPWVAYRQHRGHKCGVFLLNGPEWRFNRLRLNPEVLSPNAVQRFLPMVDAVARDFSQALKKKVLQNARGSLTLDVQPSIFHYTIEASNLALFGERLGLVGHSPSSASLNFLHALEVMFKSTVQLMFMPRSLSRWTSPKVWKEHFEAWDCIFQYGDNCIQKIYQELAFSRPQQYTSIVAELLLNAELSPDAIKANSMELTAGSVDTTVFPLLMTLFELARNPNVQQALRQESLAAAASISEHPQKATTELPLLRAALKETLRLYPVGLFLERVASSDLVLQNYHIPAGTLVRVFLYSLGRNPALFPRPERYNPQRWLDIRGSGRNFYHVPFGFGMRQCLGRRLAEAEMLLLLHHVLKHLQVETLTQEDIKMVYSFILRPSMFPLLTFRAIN
Kind of data set: Inhibition of CYP11B1 in V79 MZh cells expressing the enzyme. It is filed as cell-based. The method, then: (§1) V79MZh cells expressing human CYP11B1 [45] or CYP11B2 [44] were incubated with [^14C]-11-deoxycorticosterone as substrate. The assay was performed as previously described.

In data set [2] the target is T2, human CYP11B2 (Homo sapiens, UniProt P19099).
T2 construct: expressed in transfected cells; host or cells: V79MZh cells
T2 sequence (P19099 25-503): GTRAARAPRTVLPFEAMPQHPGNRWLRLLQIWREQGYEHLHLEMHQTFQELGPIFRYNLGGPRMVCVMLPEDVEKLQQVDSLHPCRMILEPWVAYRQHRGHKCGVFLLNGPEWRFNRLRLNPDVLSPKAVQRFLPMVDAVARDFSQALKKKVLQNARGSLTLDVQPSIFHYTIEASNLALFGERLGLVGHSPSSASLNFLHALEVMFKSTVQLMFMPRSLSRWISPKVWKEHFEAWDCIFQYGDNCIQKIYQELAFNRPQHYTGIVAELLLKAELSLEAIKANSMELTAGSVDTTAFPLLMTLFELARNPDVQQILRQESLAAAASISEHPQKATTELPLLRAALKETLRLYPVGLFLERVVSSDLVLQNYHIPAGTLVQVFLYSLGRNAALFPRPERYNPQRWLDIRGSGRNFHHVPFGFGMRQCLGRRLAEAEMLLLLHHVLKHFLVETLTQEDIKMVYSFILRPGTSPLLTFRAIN
Put plainly: Inhibition of CYP11B2 in V79 MZh cells expressing the enzyme. It is filed as cell-based. Conditions: for SF: selectivity factor = IC50 CYP11B1/IC50 CYP11B2: CYP11B2 over CYP11B1; for IC50: substrate deoxycorticosterone, 100 nM. The method, then: as §1

For data set [3], the target named is T3, human hepatic enzyme CYP1A2 (Homo sapiens, UniProt P05177).
T3 sequence (P05177 1-516): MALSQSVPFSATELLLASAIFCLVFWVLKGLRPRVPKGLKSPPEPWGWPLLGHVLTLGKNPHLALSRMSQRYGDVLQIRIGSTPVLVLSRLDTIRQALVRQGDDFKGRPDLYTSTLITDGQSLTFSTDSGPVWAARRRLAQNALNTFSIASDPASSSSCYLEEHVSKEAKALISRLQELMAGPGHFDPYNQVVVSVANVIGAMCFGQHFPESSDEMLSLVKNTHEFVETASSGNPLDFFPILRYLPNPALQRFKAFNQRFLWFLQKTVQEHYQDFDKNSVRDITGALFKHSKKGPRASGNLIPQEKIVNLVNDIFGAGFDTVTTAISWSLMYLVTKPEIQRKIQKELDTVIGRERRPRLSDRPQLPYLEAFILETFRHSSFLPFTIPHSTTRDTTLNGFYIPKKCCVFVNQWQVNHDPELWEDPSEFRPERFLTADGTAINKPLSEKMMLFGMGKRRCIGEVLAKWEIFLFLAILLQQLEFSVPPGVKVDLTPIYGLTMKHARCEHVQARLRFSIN
Kind of data set: Inhibition of human hepatic CYP1A2, recombinant enzyme (Supersomes). It counts as biochemical.

The mark [4] stands for this setting: Hamster fibroblasts (V79 MZh) expressing human CYP11B1, substrate deoxycorticosterone, 100 nM, read-out: 11B1 IC50.
The mark [5] stands for this setting: Hamster fibroblasts (V79 MZh) expressing human CYP11B2, read-out: 11B2 IC50.
Where [6] appears, read: recombinantly expressed enzyme from baculovirus infected insect microsomes (Supersomes).

What is called IC50 is the midpoint of a concentration-inhibition curve. The term melting point denotes the temperature, or range, at which the solid turns liquid.

Consider `CC12CCC(c3cccnc3)=CC1=CCCC2=O` (racemic) [Compound 17, (±)-8a-Methyl-6-pyridin-3-yl-3,7,8,8a-tetrahydro-2H-naphthalen-1-one], for which the half-maximal inhibitory concentration (IC50) in data set [1] (setting [4]) turned out to be 1020 ± 78 nM; in data set [2] (setting [5]) it was 462 ± 36 nM. Besides, the “SF: selectivity factor = IC50 CYP11B1/IC50 CYP11B2” value in data set [2] worked out at 2.

On to `c1cncc(C2CCC3CCCCC3C2)c1` (stereo not drawn) [Compound 1, 3-(Decahydro-naphthalen-2-yl)-pyridine], for which the 50% inhibitory concentration (IC50) stood at 611 ± 34 nM in data set [1] (setting [4]) and 157 ± 14 nM in data set [2] (setting [5]). In data set [2], the “SF: selectivity factor = IC50 CYP11B1/IC50 CYP11B2” value came out at 4.

On to `O=C1CC2C=C(c3cccnc3)CC2C1` (stereo not drawn) [Compound 2, 5-Pyridin-3-yl-3,3a,4,6a-tetrahydro-1H-pentalen-2-one], for which the 50% inhibitory concentration (IC50) in data set [1] (setting [4]) was 282 ± 17 nM; in data set [2] (setting [5]), 34 ± 5 nM; in data set [3] (setting [6]), greater than 100000 nM. Moreover, the “SF: selectivity factor = IC50 CYP11B1/IC50 CYP11B2” value in data set [2] turned out to be 8. The “CYP1A2 inhibition at 2 µM” value in data set [3] was “no inhibition”.

As for `O=C1CC2CC(c3cccnc3)CC2C1` (stereo not drawn) [Compound 3, 5-Pyridin-3-yl-hexahydro-pentalen-2-one], the concentration for half-maximal inhibition (IC50) in data set [1] (setting [4]) was determined as 306 ± 25 nM; in data set [2] (setting [5]), 258 ± 22 nM.

On to `C=C1CC2C=C(c3cccnc3)CC2C1` (stereo not drawn) [Compound 4, 3-(5-Methylidene-1,3a,4,5,6,6a-hexahydro-pentalen-2-yl)-pyridine], for which the figures for the half-inhibitory concentration (IC50) in data set [1] (setting [4]), in data set [2] (setting [5]) and in data set [3] (setting [6]) were 205 ± 12 nM, 6 ± 2 nM and 2170 ± 97 nM, respectively. Further, the “SF: selectivity factor = IC50 CYP11B1/IC50 CYP11B2” value in data set [2] is reported as 34.

The compound `OC1CC2C=C(c3cccnc3)CC2C1` (stereo not drawn) [Compound 5, 5-Pyridin-3-yl-1,2,3,3a,4,6a-hexahydro-pentalen-2-ol] came in with a melting point of 110 to 112 °C. Also, the concentration for half-maximal inhibition (IC50) in data set [1] (setting [4]) was 663 ± 27 nM. For the same compound, in data set [2], the “SF: selectivity factor = IC50 CYP11B1/IC50 CYP11B2” value was determined as 3. Moreover, in data set [2] (setting [5]), the IC50 turned out to be 225 ± 21 nM.

As to `OC1CC2CC(c3cccnc3)CC2C1` (stereo not drawn) [Compound 6, 5-Pyridin-3-yl-octahydro-pentalen-2-ol], the IC50 in data set [1] (setting [4]) worked out at 133 ± 29 nM; in data set [2] (setting [5]), 347 ± 35 nM. For the same compound, the “SF: selectivity factor = IC50 CYP11B1/IC50 CYP11B2” value in data set [2] is 0.4.

Consider `O=C1CCC=C(c2cccnc2)CCC1` [Compound 7, 5-Pyridin-3-yl-cyclooct-4-enone], for which the half-maximal inhibitory concentration (IC50) in data set [1] (setting [4]) was 851 ± 58 nM; in data set [2] (setting [5]) it was 205 ± 16 nM. Also, in data set [2], the “SF: selectivity factor = IC50 CYP11B1/IC50 CYP11B2” value is recorded as 4.

`O=C1CCCC(c2cccnc2)CCC1` [Compound 8, 5-Pyridin-3-yl-cyclooctanone]: the results for the IC50 in data set [1] (setting [4]) and in data set [2] (setting [5]) were 1350 ± 79 nM and 443 ± 36 nM, respectively. Further, in data set [2], the “SF: selectivity factor = IC50 CYP11B1/IC50 CYP11B2” value worked out at 3.

On to `OC1CCC=C(c2cccnc2)CCC1` (stereo not drawn) [Compound 9, 5-Pyridin-3-yl-cyclooct-4-enol], for which the values for the concentration for half-maximal inhibition (IC50) in data set [1] (setting [4]) and in data set [2] (setting [5]) were 348 ± 25 nM and 141 ± 11 nM, respectively. Besides, the “SF: selectivity factor = IC50 CYP11B1/IC50 CYP11B2” value in data set [2] turned out to be 2.

With `OC1CCCC(c2cccnc2)CCC1` (stereo not drawn) [Compound 10, (endo/exo)-5-Pyridin-3-yl-cyclooctanol], the figures for the 50% inhibitory concentration (IC50) in data set [1] (setting [4]) and in data set [2] (setting [5]) were 246 ± 36 nM and 294 ± 23 nM, respectively.

For `C1=C(c2cccnc2)CCCCCC1` [Compound 11, 3-Cyclooct-1-enyl-pyridine], the IC50 in data set [1] (setting [4]) is 195 ± 15 nM; in data set [2] (setting [5]) it was 81 ± 7 nM; in data set [3] (setting [6]) it was greater than 100000 nM. Also, the “SF: selectivity factor = IC50 CYP11B1/IC50 CYP11B2” value in data set [2] came to 2.

For the compound `c1cncc(C2CCCCCCC2)c1` [Compound 12, 3-Cyclooctyl-pyridine], the concentration for half-maximal inhibition (IC50) was 1050 ± 67 nM in data set [1] (setting [4]), 21 ± 5 nM in data set [2] (setting [5]) and greater than 100000 nM in data set [3] (setting [6]). Also, the “SF: selectivity factor = IC50 CYP11B1/IC50 CYP11B2” value in data set [2] is on record as 50. Moreover, in data set [3], the “CYP1A2 inhibition at 2 µM” value is “no inhibition”.

On to `C1=C(c2cccnc2)CCCCCCCC1` [Compound 13, 3-Cyclodec-1-enyl-pyridine], for which the figures for the IC50 in data set [1] (setting [4]), in data set [2] (setting [5]) and in data set [3] (setting [6]) were 258 ± 16 nM, 21 ± 3 nM and greater than 100000 nM, respectively. Moreover, the “SF: selectivity factor = IC50 CYP11B1/IC50 CYP11B2” value in data set [2] is on record as 12. Also, in data set [3], the “CYP1A2 inhibition at 2 µM” value was “no inhibition”.

With `c1cncc(C2CCCCCCCCC2)c1` [Compound 14, 3-Cyclodecyl-pyridine], the figures for the concentration for half-maximal inhibition (IC50) in data set [1] (setting [4]), in data set [2] (setting [5]) and in data set [3] (setting [6]) were 872 ± 79 nM, 22 ± 2 nM and greater than 100000 nM, respectively. Also, the “SF: selectivity factor = IC50 CYP11B1/IC50 CYP11B2” value in data set [2] is 40.

As for `C1=C(c2cccnc2)CCCCCCCCCC1` [Compound 15, 3-Cyclododec-1-enyl-pyridine], the IC50 is greater than 10000 nM in data set [1] (setting [4]) and 1170 ± 97 nM in data set [2] (setting [5]).

`c1cncc(C2CCCCCCCCCCC2)c1` [Compound 16, 3-Cyclododecyl-pyridine]: the half-maximal inhibitory concentration (IC50) in data set [1] (setting [4]) came out at 1770 ± 56 nM; in data set [2] (setting [5]), 636 ± 32 nM. Moreover, the “SF: selectivity factor = IC50 CYP11B1/IC50 CYP11B2” value in data set [2] is listed as 3.

Turning to `C1=C(c2cccnc2)C2CCC1C2` (stereo not drawn) [Compound 18, 3-Bicyclo[2.2.1]hept-2-en-2-yl-pyridine], the figures for the IC50 in data set [1] (setting [4]) and in data set [2] (setting [5]) were 2130 ± 113 nM and 889 ± 57 nM, respectively. Further, the “SF: selectivity factor = IC50 CYP11B1/IC50 CYP11B2” value in data set [2] is listed as 3.

As to `c1cncc(C2CC3CCC2C3)c1` (stereo not drawn) [Compound 19, (endo/exo)-3-Bicyclo[2.2.1]hept-2-yl-pyridine], the IC50 worked out at 137 ± 12 nM in data set [1] (setting [4]), 99 ± 21 nM in data set [2] (setting [5]), 44000 nM in data set [3] (recombinant CYP1A2) and 44430 ± 388 nM in data set [3] (setting [6]).

As to `CN1C2C=C(c3cccnc3)CC1CC2` (stereo not drawn) [Compound 20, 8-Methyl-3-pyridin-3-yl-8-aza-bicyclo[3.2.1]oct-2-ene], the concentration for half-maximal inhibition (IC50) in data set [1] (setting [4]) is greater than 5000 nM; in data set [2] (setting [5]), 2440 ± 88 nM.

Turning to `CN1C2CCC1CC(c1cccnc1)C2` (stereo not drawn) [Compound 21, (endo/exo)-8-Methyl-3-pyridin-3-yl-8-aza-bicyclo[3.2.1]octane], the 50% inhibitory concentration (IC50) in data set [1] is greater than 10000 nM; in data set [2] (11B2 IC50, Hamster fibroblasts (V79 MZh) expressing human CYP11B2), 2830 ± 135 nM.

On to `COc1ccc2cc(-c3cccnc3)ccc2c1` [I, reference compound], for which, in data set [3] (setting [6]), the IC50 came out at 41 ± 5 nM.

On to `COC1CCc2cc(-c3cccnc3)ccc2C1` (stereo not drawn) [II, reference compound], for which the IC50 in data set [1] (setting [4]) turned out to be 1140 ± 78 nM; in data set [2] (setting [5]) it was 3 ± 1 nM; in data set [3] (setting [6]), 440 ± 11 nM. In addition, in data set [2], the “SF: selectivity factor = IC50 CYP11B1/IC50 CYP11B2” value came to 347.

As for `COc1ccc2c(c1)CC(C)C(c1cccnc1)=C2` (stereo not drawn) [III, reference compound], the IC50 in data set [1] (setting [4]) was determined as 248 ± 19 nM; in data set [2] (setting [5]), 3 ± 1 nM; in data set [3] (setting [6]), 741 ± 55 nM. In data set [2], the “SF: selectivity factor = IC50 CYP11B1/IC50 CYP11B2” value was determined as 79.
